Results: US9073821B2, “Hydroxamic acid derivative” (priority 2010, dated 2015)

molecular target: Pseudomonas aeruginosa LpxC enzyme (Pseudomonas aeruginosa (strain ATCC 15692 / DSM 22644 / CIP 104116 / JCM 14847 / LMG 12228 / 1C / PRS 101 / PAO1), UniProt P47205); experiment: biochemical; format: biochemical; settings: inhibitory activity on Pseudomonas aeruginosa LpxC enzyme, class symbols A/B/C; read-out: Enzyme inhibitory activity

Compound | IC50
O=C(NC(C(=O)NO)C(=O)Nc1cccnc1)c1ccc(-c2ccc(OCCO)cc2)cc1 (centres unmarked) [Compound 116, N-hydroxy-2-({[4′-(2-hydroxyethoxy)biphenyl-4-yl]carbonyl}amino)-N′-(pyridin-3-yl)propanediamide] | 10 to 100 nM
CNC(=O)C(NC(=O)c1ccc(C#Cc2ccc(CN3CCCOCC3)cc2)cc1)C(=O)NO (centres unmarked) [Compound 117, N-hydroxy-N′-methyl-2-[(4-{[4-(1,4-oxazepan-4-ylmethyl)phenyl]ethynyl}benzoyl)amino]propanediamide] | < 10 nM
CN(C)C(=O)C(NC(=O)c1ccc(-c2ccc(OCCO)cc2)cc1)C(=O)NO (centres unmarked) [Compound 118, N′-hydroxy-2-({[4′-(2-hydroxyethoxy)biphenyl-4-yl]carbonyl}amino)-N,N-dimethylpropanediamide] | > 100 nM
CC(C)(C)NC(=O)C(NC(=O)c1ccc(-c2ccc(OCCO)cc2)cc1)C(=O)NO (centres unmarked) [Compound 119, N-tert-butyl-N′-hydroxy-2-({[4′-(2-hydroxyethoxy)biphenyl-4-yl]carbonyl}amino)propanediamide] | > 100 nM
O=C(NC(C(=O)NO)C(=O)NCc1ccccc1)c1ccc(-c2ccc(OCCO)cc2)cc1 (centres unmarked) [Compound 120, N-benzyl-N′-hydroxy-2-({[4′-(2-hydroxyethoxy)biphenyl-4-yl]carbonyl}amino)propanediamide] | < 10 nM
O=C(NC(C(=O)NO)C(=O)NC1CC1)c1ccc(-c2ccc(OCCO)cc2)cc1 (centres unmarked) [Compound 121, N-cyclopropyl-N′-hydroxy-2-({[4′-(2-hydroxyethoxy)biphenyl-4-yl]carbonyl}amino)propanediamide] | 10 to 100 nM
O=C(NC(C(=O)NO)C(=O)NCCO)c1ccc(-c2ccc(OCCO)cc2)cc1 (centres unmarked) [Compound 122, N-hydroxy-2-({[4′-(2-hydroxyethoxy)biphenyl-4-yl]carbonyl}amino)-N′-(2-hydroxyethyl)propanediamide] | 10 to 100 nM
CN(C)CCNC(=O)C(NC(=O)c1ccc(-c2ccc(OCCO)cc2)cc1)C(=O)NO (centres unmarked) [Compound 123, N-[2-(dimethylamino)ethyl]-N′-hydroxy-2-({[4′-(2-hydroxyethoxy)biphenyl-4-yl]carbonyl}amino)propanediamide] | > 100 nM
O=C(NC(C(=O)NO)C(=O)NCc1ccncc1)c1ccc(-c2ccc(OCCO)cc2)cc1 (centres unmarked) [Compound 124, N-hydroxy-2-({[4′-(2-hydroxyethoxy)biphenyl-4-yl]carbonyl}amino)-N′-(pyridin-4-ylmethyl)propanediamide] | < 10 nM
O=C(NC(C(=O)NO)C(=O)NCCc1ccccc1)c1ccc(-c2ccc(OCCO)cc2)cc1 (centres unmarked) [Compound 125, N-hydroxy-2-({[4′-(2-hydroxyethoxy)biphenyl-4-yl]carbonyl}amino)-N′-(2-phenylethyl)propanediamide] | 10 to 100 nM
O=C(NC(C(=O)NO)C(=O)NCCCc1ccccc1)c1ccc(-c2ccc(OCCO)cc2)cc1 (centres unmarked) [Compound 126, N-hydroxy-2-({[4′-(2-hydroxyethoxy)biphenyl-4-yl]carbonyl}amino)-N′-(3-phenylpropyl)propanediamide] | < 10 nM
CNC(=O)C(C(=O)NO)N(C(=O)c1ccc(-c2ccccc2)cc1)C1CC1 (centres unmarked) [Compound 127, 2-[(Biphenyl-4-ylcarbonyl)(cyclopropyl)amino]-N-hydroxy-N′-methylpropanediamide] | < 10 nM
O=C(NC(C(=O)NO)C(=O)NCC1CCC1)c1ccc(-c2ccc(OCCO)cc2)cc1 (centres unmarked) [Compound 128, N-(cyclobutylmethyl)-N′-hydroxy-2-({[4′-(2-hydroxyethoxy)biphenyl-4-yl]carbonyl}amino)propanediamide] | < 10 nM
O=C(NC(C(=O)NO)C(=O)NCc1cccnc1)c1ccc(-c2ccc(OCCO)cc2)cc1 (centres unmarked) [Compound 129, N-hydroxy-2-({[4′-(2-hydroxyethoxy)biphenyl-4-yl]carbonyl}amino)-N′-(pyridin-3-ylmethyl)propanediamide] | < 10 nM
O=C(NC(C(=O)NO)C(=O)NCc1ccccn1)c1ccc(-c2ccc(OCCO)cc2)cc1 (centres unmarked) [Compound 130, N-hydroxy-2-({[4′-(2-hydroxyethoxy)biphenyl-4-yl]carbonyl}amino)-N′-(pyridin-2-ylmethyl)propanediamide] | < 10 nM
COCCNC(=O)C(NC(=O)c1ccc(-c2ccc(OCCO)cc2)cc1)C(=O)NO (centres unmarked) [Compound 131, N-hydroxy-2-({[4′-(2-hydroxyethoxy)biphenyl-4-yl]carbonyl}amino)-N′-(2-methoxyethyl)propanediamide] | 10 to 100 nM
CSCCNC(=O)C(NC(=O)c1ccc(-c2ccc(OCCO)cc2)cc1)C(=O)NO (centres unmarked) [Compound 132, N-hydroxy-2-({[4′-(2-hydroxyethoxy)biphenyl-4-yl]carbonyl}amino)-N′-[2-(methylsulfanyl)ethyl]propanediamide] | < 10 nM
Cc1cc(CNC(=O)C(NC(=O)c2ccc(-c3ccc(OCCO)cc3)cc2)C(=O)NO)no1 (centres unmarked) [Compound 133, N-hydroxy-2-({[4′-(2-hydroxyethoxy)biphenyl-4-yl]carbonyl}amino)-N′-[(5-methyl-1,2-oxazol-3-yl)methyl]propanediamide] | < 10 nM

Compound | IC50
O=C(NC(C(=O)NO)C(=O)NCC1CCCO1)c1ccc(-c2ccc(OCCO)cc2)cc1 (centres unmarked) [Compound 134, N-hydroxy-2-({[4′-(2-hydroxyethoxy)biphenyl-4-yl]carbonyl}amino)-N′-(tetrahydrofuran-2-ylmethyl)propanediamide] | < 10 nM
CC(=O)NCCNC(=O)C(NC(=O)c1ccc(-c2ccc(OCCO)cc2)cc1)C(=O)NO (centres unmarked) [Compound 135, N-[2-(acetylamino)ethyl]-N′-hydroxy-2-({[4′-(2-hydroxyethoxy)biphenyl-4-yl]carbonyl}amino)propanediamide] | < 10 nM
CC(C)(C)CNC(=O)C(NC(=O)c1ccc(-c2ccc(OCCO)cc2)cc1)C(=O)NO (centres unmarked) [Compound 136, N-(2,2-dimethylpropyl)-N′-hydroxy-2-({[4′-(2-hydroxyethoxy)biphenyl-4-yl]carbonyl}amino)propanediamide] | 10 to 100 nM
O=C(NC(C(=O)NO)C(=O)NCC(F)F)c1ccc(-c2ccc(OCCO)cc2)cc1 (centres unmarked) [Compound 137, N-(2,2-difluoroethyl)-N′-hydroxy-2-({[4′-(2-hydroxyethoxy)biphenyl-4-yl]carbonyl}amino)propanediamide] | 10 to 100 nM
O=C(NC(C(=O)NO)C(=O)NCCOc1ccccc1)c1ccc(-c2ccc(OCCO)cc2)cc1 (centres unmarked) [Compound 138, N-hydroxy-2-({[4′-(2-hydroxyethoxy)biphenyl-4-yl]carbonyl}amino)-N′-(2-phenoxyethyl)propanediamide] | < 10 nM
CCNC(=O)C(NC(=O)c1ccc(-c2ccc(OCCO)cc2)cc1)C(=O)NO (centres unmarked) [Compound 139, N-ethyl-N′-hydroxy-2-({[4′-(2-hydroxyethoxy)biphenyl-4-yl]carbonyl}amino)propanediamide] | 10 to 100 nM
Cn1ccc(CNC(=O)C(NC(=O)c2ccc(-c3ccc(OCCO)cc3)cc2)C(=O)NO)n1 (centres unmarked) [Compound 140, N-hydroxy-2-({[4′-(2-hydroxyethoxy)biphenyl-4-yl]carbonyl}amino)-N′-[(1-methyl-1H-pyrazol-3-yl)methyl]propanediamide] | < 10 nM
O=C(NC(C(=O)NO)C(=O)NCC(=O)N1CCCC1)c1ccc(-c2ccc(OCCO)cc2)cc1 (centres unmarked) [Compound 141, N-hydroxy-2-({[4′-(2-hydroxyethoxy)biphenyl-4-yl]carbonyl}amino)-N′-[2-oxo-2-(pyrrolidin-1-yl)ethyl]propanediamide] | < 10 nM
CCCNC(=O)C(NC(=O)c1ccc(-c2ccc(OCCO)cc2)cc1)C(=O)NO (centres unmarked) [Compound 142, N-hydroxy-2-({[4′-(2-hydroxyethoxy)biphenyl-4-yl]carbonyl}amino)-N′-propylpropanediamide] | 10 to 100 nM
CC(C)NC(=O)C(NC(=O)c1ccc(-c2ccc(OCCO)cc2)cc1)C(=O)NO (centres unmarked) [Compound 143, N-hydroxy-2-({[4′-(2-hydroxyethoxy)biphenyl-4-yl]carbonyl}amino)-N′-(propan-2-yl)propanediamide] | 10 to 100 nM
CN(C)C(=O)CNC(=O)C(NC(=O)c1ccc(-c2ccc(OCCO)cc2)cc1)C(=O)NO (centres unmarked) [Compound 144, N-[2-(dimethylamino)-2-oxoethyl]-N′-hydroxy-2-({[4′-(2-hydroxyethoxy)biphenyl-4-yl]carbonyl}amino)propanediamide] | < 10 nM
CC(=O)N(C)CCNC(=O)C(NC(=O)c1ccc(-c2ccc(OCCO)cc2)cc1)C(=O)NO (centres unmarked) [Compound 145, N-{2-[acetyl(methyl)amino]ethyl}-N′-hydroxy-2-({[4′-(2-hydroxyethoxy)biphenyl-4-yl]carbonyl}amino)propanediamide] | 10 to 100 nM
Cn1nccc1CNC(=O)C(NC(=O)c1ccc(-c2ccc(OCCO)cc2)cc1)C(=O)NO (centres unmarked) [Compound 146, N-hydroxy-2-({[4′-(2-hydroxyethoxy)biphenyl-4-yl]carbonyl}amino)-N′-[(1-methyl-1H-pyrazol-5-yl)methyl]propanediamide] | < 10 nM
Cn1cc(CNC(=O)C(NC(=O)c2ccc(-c3ccc(OCCO)cc3)cc2)C(=O)NO)cn1 (centres unmarked) [Compound 147, N-hydroxy-2-({[4′-(2-hydroxyethoxy)biphenyl-4-yl]carbonyl}amino)-N′-[(1-methyl-1H-pyrazol-4-yl)methyl]propanediamide] | < 10 nM
O=C(NC(C(=O)NO)C(=O)NO)c1ccc(-c2ccc(OCCO)cc2)cc1 [Compound 148, N,N′-dihydroxy-2-({[4′-(2-hydroxyethoxy)biphenyl-4-yl]carbonyl}amino)propanediamide] | 10 to 100 nM
O=C(NC(C(=O)NO)C(=O)NCC1COc2ccccc2O1)c1ccc(-c2ccc(OCCO)cc2)cc1 (centres unmarked) [Compound 149, N-(2,3-dihydro-1,4-benzodioxin-2-ylmethyl)-N′-hydroxy-2-({[4′-(2-hydroxyethoxy)biphenyl-4-yl]carbonyl}amino)propanediamide] | < 10 nM
Cc1cccc(CNC(=O)C(NC(=O)c2ccc(-c3ccc(OCCO)cc3)cc2)C(=O)NO)n1 (centres unmarked) [Compound 150, N-hydroxy-2-({[4′-(2-hydroxyethoxy)biphenyl-4-yl]carbonyl}amino)-N′-[(6-methylpyridin-2-yl)methyl]propanediamide] | < 10 nM
